For 85 compounds, melting point results are on record in a melting point compilation (Tetko et al.; mined from patent text by program, amines drawn as free bases though some values may be those of a salt).

As usually defined, the melting point is the temperature, or range, at which the solid turns liquid. For the compound `O=[N+]([O-])c1ccc2c(c1)[nH]c1cc([N+](=O)[O-])ccc12`, the melting point is greater than 300 °C. With `NS(=O)(=O)c1cnc(S(=O)(=O)c2ccccc2)s1` the figure was 119 to 120 °C; with `CCCCOC(=O)c1cc(Cl)ccc1N`, 37 to 39 °C.

`CC(=O)c1cc(-c2ccccc2)c(=O)n2c1-c1ccsc1CC2` yielded a melting point of 181 to 182 °C. Consider `CCCCCCCCC#CCC#CCC#CCS(=O)(=O)CC(=O)NCC`, for which the melting point was found to be 83 °C. To `CC(C)NC(=O)c1cnc(N2CCC(N3C(=O)COc4ccccc43)CC2)c(Cl)c1` belongs 85 to 88 °C; to `O=C(/C=C/c1ccccc1[N+](=O)[O-])N1CCN(C(=O)c2cc(C(F)(F)F)cc(C(F)(F)F)c2)[C@H](Cc2c[nH]c3ccccc23)C1`, 125 to 133 °C; to `CCOC(=O)c1c(C)nc(CCl)c(C(=O)OCC)c1-c1cccc([N+](=O)[O-])c1`, 76 to 78 °C. Consider `CCC(=O)C1=CCC(c2c(C)c(C)c3c(c2Cl)CC(C)(CC)C3)CC1=O` (stereo not given), for which the melting point lay in the range of 55 to 57 °C. Regarding `O=CCCCCC(=O)Nc1ccc(C(F)(F)F)cc1`, the melting point was in the range of 130 to 131 °C.

`Cc1cc(C2=CO[C@@](c3cc(Cl)cc(Cl)c3)(C(F)(F)F)C2)ccc1C(=O)NC1CS(=O)(=O)C1` displayed a melting point of 90 to 105 °C. To `CC(=O)n1cc(/C=C2\N=C(c3ccccc3)OC2=O)c2cc(Cl)cnc21` belongs 242 °C; to `CCCCCCCN(C[C@H]1CCC[C@H](CN(CCCCCCC)C(=O)Nc2ccc(N(C)C)cc2)C1)C(=O)Nc1ccc(N(C)C)cc1` (relative stereo), 121 to 126 °C. Take `CNC(=O)c1ccccc1N=C(NC(=O)c1ccccc1)SC`: the melting point lay in the range of 193 to 195 °C. To `COc1ccc(-c2nnn(Cc3ccc(Cl)cc3Cl)c2N)cc1` belongs 156 to 159 °C. To `N#Cc1cnn2c1N(C(=O)CN1CCN(C(=O)Nc3ccc(Cl)c(Cl)c3)CC1)CC=C2c1cccc(C(F)(F)F)c1` belongs 204 to 206 °C; to `CNc1cc(Cc2cnc(N)nc2N)cc(N(C)C)c1OC`, 183 °C; to `CC(C)(C)[Si](C)(C)Oc1cc(Cl)cc(C(=O)C(F)(F)F)c1N`, 45 to 46.5 °C. Turning to `Cc1c(OCc2ccccc2)ccc(-c2cc(O)c(SCCc3ccccc3)c(=O)o2)c1O`, the melting point lay within 147 to 148 °C. In turn, `CN1C(=O)C=C(c2ccc([N+](=O)[O-])cc2)C1=O` showed a melting point of 163 to 166 °C. Compound `C#CCOc1cc(-n2nc3c(Cl)cc(Cl)cn3c2=O)c(F)cc1C#N` had a melting point of 145 to 147 °C. With `N=C1SCCN1c1ccc(N)cc1` the figure was 148 °C. To `Cn1nnnc1C(C=O)=C(c1ccc(F)cc1)c1ccc(F)cc1` belongs 135 to 137 °C. Compound `COc1ccc(C(=O)NCC(=O)N2c3ccccc3N(Cc3ccccc3)C(=O)[C@H]3CCC[C@H]32)cc1OC` (relative stereo) gave a melting point of 174 to 176 °C. On to `CC(=O)OC1CSC(Oc2cccc(-c3ccc(F)cn3)c2)C(OC(C)=O)C1OC(C)=O` (stereo not given), for which the melting point stood at 113 °C.

The compound `O=C1C(=O)N(c2ccc(Cl)c(Cl)c2)C(=O)N1c1cccc(C(F)(F)F)c1` showed a melting point of 116 °C.

Regarding `O=Cc1c(Cl)cc(OCc2ccccc2)cc1OCc1ccccc1`, the melting point lay in the range of 85 to 86 °C. With `CCN1C(=O)CSC1=NOC(=O)N(C)SC(Cl)(Cl)Cl`, the melting point was in the range of 126 to 128 °C. With `COc1cc2c(=O)n(CCN3CCN(C)CC3)c3c4cc5c(cc4ncc3c2cc1OC)OCO5` the figure was 244 to 246 °C; with `COc1ccc(-c2ccc3c(c2)C=C(C(=O)Nc2ccc(CN(C)C4CCC(=O)CC4)cc2)CCS3)cc1`, 133 to 139 °C; with `CNC(=S)NS(=O)(=O)c1cc(CCNC(=O)c2cc(Cl)ccc2OC)ccc1-c1ccco1`, 145 to 146 °C.

Regarding `CCOC(=O)C1=C(COCC#CC(=O)O)NC(C)=C(C(=O)OC)C1c1cccc(Cl)c1Cl` (stereo not given), the melting point is 100 °C. To `O=C(NCCCOc1ccncc1)c1cccnc1` belongs 117 to 119 °C.

For `Cc1ccc(-c2ncn(-c3ccc(OC(F)(F)C(F)(F)F)cc3)n2)cc1`, the melting point was 130 to 132 °C. Turning to `Cc1nc(N2CCN(Cc3ccccc3)C2=O)sc1C(=O)NCc1ccncc1`, the melting point is 96 to 97 °C. In turn, `O=C(c1ccc2nonc2c1)N(C1CCOCC1)C1CC1` showed a melting point of 108 to 109 °C. With `Cc1nnc(-c2ccc3ncn(-c4ccc(OC(F)(F)F)cc4)c3c2)o1` the figure was 160 to 161 °C. In turn, `O=c1[nH]nc(-c2ccc(NN=C(c3ccc(O)cc3)c3ccc(O)cc3O)cc2)c2ccccc12` registered a melting point of 150 to 160 °C.

In the case of `Fc1ccc(CN2CCc3cc(OC[C@H]4CO[C@](Cn5ccnc5)(c5ccc(Cl)cc5Cl)O4)ccc3C2)cc1` (racemic), the melting point lay within 119 to 120 °C. With `CCCCc1nn(-c2ccccc2C(F)(F)F)c(=O)n1Cc1ccc(-c2ccccc2S(=O)(=O)Nc2ccc([N+](=O)[O-])cc2)cc1` the figure was 186 to 187 °C; with `COC(=O)c1cnc(C(=O)OC)c(Cl)c1`, 36 to 38 °C; with `NC(=O)COC(=O)c1c(Cl)cccc1Cl`, 114 to 116 °C. Consider `CCCCCC1CCC(c2ccc(-c3ccc(Br)cc3C(F)(F)F)cc2)CC1` (stereo not given), for which the melting point was 51 to 52 °C.

In turn, `Cc1nc(-c2ncn3c2c(C)nc2ccccc23)no1` came in with a melting point of 192 to 193 °C. With `CCOC(=O)c1cnc2c(c1)C(=O)C=CC2=O` the figure was 124 °C. To `COc1cc2c(cc1OC)[C@@H]1CCCC[C@@H]1N=C2c1ccc([N+](=O)[O-])c([N+](=O)[O-])c1` belongs 162 to 165 °C; to `O=C(CN1C(=O)C2(COc3cc4c(cc32)CCO4)c2ccccc21)Nc1ccccc1F` (stereo not given), 210 to 212 °C. With `CCCc1nn(CC)c2c(=O)[nH]c(-c3cc(S(=O)(=O)Cl)ccc3OCC)nc12` the figure was 170 to 172 °C; with `CCOc1c(C#N)cnc2c(NC(=O)c3c(Cl)cccc3Cl)cccc12`, 200 to 201 °C. Consider `CCOC(=O)C(C)(C)C(=O)C(Oc1ccc(Cl)cc1)n1ccnc1` (stereo not given), for which the melting point stood at 88 °C.

For the compound `O=C(N[C@H]1CC[C@@H](C(=O)Oc2ccc3c(c2)CCC3)CC1)OCc1ccccc1`, the melting point lay within 68 to 69 °C. With `CNC(=O)c1cc(N)cc(C(F)(F)F)c1` the figure was 113 to 115 °C; with `COCc1cc([N+](=O)[O-])c(Cl)cc1C(=O)Cl`, 63 to 65 °C. With `COc1cc(OCCOC(C)C)cc2nc(-c3cc(C)nc(C)c3)[nH]c(=O)c12` the figure was 188 to 189 °C.

For `CNc1nc(C)c(-c2ccc(Cl)c([N+](=O)[O-])c2)s1`, the melting point is 220 to 232 °C. With `Brc1ccc2c(c1)-c1nc(-c3ccccc3)sc1CC2` the figure was 85 °C; with `Cc1c(O)ccc2c1OCC(c1ccc(Cl)cc1)C2` (stereo not given), 98 to 100 °C. To `CCS(=O)(=O)Nc1nc(CCCN2CCN(C(c3ccccc3)c3ccccc3)CC2)cs1` belongs 162 to 164 °C; to `Cc1cc(O)c(S(=O)CC2CCCCC2)c(=O)o1` (stereo not given), 132 to 134 °C; to `Cn1c(CO)c(-c2ccccc2)c2ccccc2c1=O`, 159 to 161 °C. In the case of `CCCCCCCCCCOc1cc2oc3ccc(C(=O)O)cc3c(=O)c2cc1CCC(=O)O`, the melting point was greater than 210 °C. To `CCOc1ccc(C(=O)COC(C)=O)cc1` belongs 81 to 82 °C; to `CCCCc1nc(C(O)c2ccccc2)c(C(=O)O)n1Cc1ccc(-c2ccccc2C(=O)O)cc1` (stereo not given), 192 to 194 °C.

Compound `CCC1CC(=O)CC23CCN(C#N)C(Cc4ccc(OC)cc42)C13` (stereo not given) displayed a melting point of 141 to 145 °C. With `NCCNC(=O)COc1ccc(C2=NNC(=O)CC2)cc1` the figure was 176 to 178 °C; with `O=C(O)c1cn2c(n1)COc1ccccc1-2`, 256 to 258 °C. With `Cc1nnc2n1-c1ccccc1C(c1ccccc1C(F)(F)F)OC2` (stereo not given), the melting point lay within 265 to 269 °C. With `O=C(c1ccc(F)cc1)N1CCOC(c2nc(-c3ccc(F)cc3)no2)C1` (stereo not given) the figure was 116 to 117 °C. Compound `CC1CCNC(=C[N+](=O)[O-])N1c1ccc(Cl)nc1` (stereo not given) showed a melting point of 184 °C. `O=S1(=O)N=CN(C2CC2)c2c(F)cccc21` came in with a melting point of 151 to 152 °C.

Compound `CCCCCCCCCCCCCCC(=O)C(=O)N[C@@H](CCCC)COCC(=O)OCC` had a melting point of 41 to 43 °C. With `COc1cc(Nc2nccc(NC(=O)OC(C)(C)C)n2)cc(OC)c1OC` the figure was 124 °C.

As to `Cc1sc2cc(C3=NCCS3)[nH]c2c1N(C)S(=O)(=O)c1cccs1`, the melting point is 140 °C.

`CN1CCN(C2=Nc3cc(F)ccc3Nc3nn(C)nc32)CC1` came in with a melting point of 195 to 197 °C. With `CN(C)n1c(S)nc2ccccc2c1=O` the figure was 245 to 249 °C; with `O=C1CC[C@@H](c2ccccc2)[C@H](c2ccccc2)N1` (relative stereo), 160 to 164 °C. With `CCOc1ccccc1OCCNC(=O)CCC(=O)c1ccc(F)cc1` the figure was 98 to 100 °C; with `O=[N+]([O-])c1oc2cc(NS(=O)(=O)C(F)(F)F)ccc2c1-c1ccccc1`, 114 to 120 °C; with `CC(C)CO/N=C(\C(=O)O)c1csc(NC(c2ccccc2)(c2ccccc2)c2ccccc2)n1`, 168 to 169 °C.

As for `CC(C)N1C(=O)C2Cc3c(nc(C(=O)c4ccccc4)n3Cc3ccccc3)CN2C1=O` (stereo not given), the melting point fell in the range of 215 to 217 °C. As for `Cc1cccc(CC(=O)O)c1OCc1nc(OC(C)C)c(C(=O)NCc2ccc(Cl)cc2Cl)s1`, the melting point lay in the range of 125 to 126 °C.

Take `COC(=O)C1=Cc2ccc(O)cc21`: the melting point was in the range of 108 to 109 °C. With `CCO/N=C(\C)[C@H]1CC[C@H]2[C@@H]3CC=C4C[C@@H](O)CC[C@]4(C)[C@H]3CC[C@]12C` the figure was 119 to 121 °C; with `CCOC(=O)C1(N2C(=O)c3cccc(F)c3C2=O)CC1`, 164 °C. With `C=CCC(O)(CCCc1ccc(Cl)cc1)c1ccc(OCc2ccc3ccccc3n2)cc1` (stereo not given) the figure was 87 to 88 °C.
